According to patent US20220193076A1, “METHODS OF TREATING BREAST CANCER WITH TUCATINIB” (Seagen Inc., priority 2019, published 2022):

Tests used:
[1] = molecular target: T1, CYP2C8 (Homo sapiens, UniProt P10632); assay: Example 2 Part C: effect of strong CYP2C8 inhibitor gemfibrozil on PK of tucatinib; assay type: in vivo; parameters: endogenous in cells; host or cells: healthy human subjects, in vivo; details: tucatinib 300 mg single dose in combination with gemfibrozil vs tucatinib alone
T1 sequence (P10632 1-490): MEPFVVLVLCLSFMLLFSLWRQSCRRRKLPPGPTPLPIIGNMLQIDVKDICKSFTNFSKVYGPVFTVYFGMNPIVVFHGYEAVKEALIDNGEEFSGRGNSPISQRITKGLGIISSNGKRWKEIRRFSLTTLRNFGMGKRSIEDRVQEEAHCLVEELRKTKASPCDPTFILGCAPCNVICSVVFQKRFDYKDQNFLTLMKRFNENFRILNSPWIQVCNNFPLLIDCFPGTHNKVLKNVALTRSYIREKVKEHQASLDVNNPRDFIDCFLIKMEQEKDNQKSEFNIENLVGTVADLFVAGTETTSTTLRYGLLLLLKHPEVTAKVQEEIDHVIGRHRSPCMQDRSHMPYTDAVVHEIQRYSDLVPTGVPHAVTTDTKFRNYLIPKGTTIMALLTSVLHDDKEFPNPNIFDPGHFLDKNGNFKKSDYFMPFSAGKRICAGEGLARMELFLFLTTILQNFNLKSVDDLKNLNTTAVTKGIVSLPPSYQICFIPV
Protocol: From Day 3 to Day 8, each subject received single oral doses of 600 mg of gemfibrozil (BID), twice daily (BID). On Day 7, each subject received a single oral dose of 300 mg of tucatinib. […] Other noncompartmental PK parameters may be reported. Additionally, blood samples were collected for determination of trough levels of gemfibrozil prior to morning dosing on the days indicated in FIG. 7.

[2] = molecular target: T2, MATE1 (Homo sapiens, UniProt Q96FL8); assay: Inhibition of MATE1 mediated transport of creatinine in transfected MDCK-II cells (Example 3); assay type: in vitro ADME; parameters: expressed in transfected cells; host or cells: MDCK-II; details: probe substrate creatinine
T2 sequence (Q96FL8 1-570): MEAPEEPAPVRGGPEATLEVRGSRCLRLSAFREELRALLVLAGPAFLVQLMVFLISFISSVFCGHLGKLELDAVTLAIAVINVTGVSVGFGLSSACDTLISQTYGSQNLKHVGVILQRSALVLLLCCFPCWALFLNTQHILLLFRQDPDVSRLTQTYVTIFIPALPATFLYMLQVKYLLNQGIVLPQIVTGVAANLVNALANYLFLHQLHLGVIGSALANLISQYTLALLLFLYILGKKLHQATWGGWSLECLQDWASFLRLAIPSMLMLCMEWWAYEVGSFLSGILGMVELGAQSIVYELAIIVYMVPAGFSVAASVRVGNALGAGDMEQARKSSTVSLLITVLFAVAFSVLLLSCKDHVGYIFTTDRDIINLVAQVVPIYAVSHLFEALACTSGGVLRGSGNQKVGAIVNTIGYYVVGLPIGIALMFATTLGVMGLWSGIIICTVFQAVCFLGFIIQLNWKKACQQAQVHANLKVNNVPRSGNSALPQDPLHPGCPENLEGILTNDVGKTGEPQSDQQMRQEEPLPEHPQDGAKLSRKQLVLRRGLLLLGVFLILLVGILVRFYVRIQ
Protocol: OAT2, OCT2, OCT3, MATE1, and MATE2-K are the renal transporters identified to transport creatinine.
For this study, MDCK-II were maintained in DMEM with low glucose and 10% FBS. Cells were seeded at 60K±10K cells/well on 96-well, transwell membrane plates approximately 24 hours before transfection. Transport assays were carried out approximately 48 hours after transfection. Cells were transfected and treated to express the transporter of interest or treated with a control vector. The transport of creatinine was determined by radiometric detection.
Net transporter mediated uptake of the substrate by each transporter was calculated as follows: Net Transporter Mediated Substrate Uptake (pmol/min/cm^2)=(Cellular accumulation in the presence of the transporter)−(Mean cellular accumulation in the absence of the transporter.
Percent inhibition was calculated as follows: Percent inhibition=100−(100*(transporter mediated uptake)with inhibition/(transporter mediated uptake)without inhibition)
The following equation was used to determine IC50 values of uptake assays: […]

[3] = molecular target: T1, CYP2C8; assay: Example 2 Part D: effect of tucatinib on PK of substrate probe repaglinide; assay type: in vivo; parameters: endogenous in cells; host or cells: healthy human subjects, in vivo; details: steady-state tucatinib 300 mg BID, probe repaglinide
Protocol: A Phase 1, open-label, fixed-sequence, 5-part, drug-drug interaction study of tucatinib was conducted to evaluate the effects of CYP3A4 and CYP2C8 inhibition and induction on the pharmacokinetics of tucatinib and to evaluate the effects of tucatinib on the pharmacokinetics of substrates of CYP3A4, CYP2C8, CYP2C9, and P-glycoprotein in healthy male and female subjects.
Part B evaluates the effect of rifampin, a strong inducer of CYP3A4 and CYP2C8, on the PK of tucatinib. […] Part E evaluates the effect of tucatinib on the PK of a substrate probe of the transporter P-gp (digoxin). […] For Parts A, B, and C, tucatinib is given as a single oral dose because evaluating plasma exposures after a single dose of tucatinib is expected to provide an appropriate assessment of the impact of the probe drugs on tucatinib PK. In Parts D and E, tucatinib is given as a multiple-dosing regimen in order to examine its effects on probe drugs at steady state, at which maximal inhibition of CYP2C8, CYP2C9, CYP3A4, and P-gp by tucatinib should be achieved.
Secondary objectives of the study included: (1) assessing the safety and tolerability of tucatinib when administered alone and when co-administered with substrate probes of CYP2C8, CYP2C9, and CYP3A4; and (2) assessing the single-dose PK of tucatinib and assessing the multiple-dose, steady-state PK of tucatinib alone and in the presence of substrate probes of CYP2C8, CYP2C9, and CYP3A4 in healthy subjects.
They were discharged on Day 14 after completion of the in-patient assessments.
On Day 1, each subject received a single oral dose of 0.5 mg of repaglinide. […] From Day 4 to Day 13, each subject received oral doses of 300 mg of tucatinib, twice daily (BID). On Day 11, each subject received a single oral dose of repaglinide. […] Tucatinib was provided as 150-mg tablets (2 tablets for the 300-mg dose), repaglinide was provided as 0.5-mg tablets, olbutamide was provided as 500-mg tablets, and midazolam was provided as a syrup (2 mg/mL; 1 mL syrup for the 2-mg dose). Tucatinib, repaglinide, olbutamide and midazolam were administered before meals preceded by an at least 8-hour overnight fast.
Other noncompartmental PK parameters may be reported. Additionally, blood samples for determination of plasma concentrations of tucatinib and ONT-993 were collected at the time points indicated in FIG. 8. […] A single genotyping blood sample was collected to assess possible effect of CYP polymorphisms or other genetic polymorphisms on the magnitude of drug interactions of tucatinib with probe drugs and substrates.

For `Cc1cc(Nc2ncnc3ccc(NC4=NC(C)(C)CO4)cc23)ccc1Oc1ccn2ncnc2c1` [tucatinib], the “Geometric LS mean ratio (90% CI), AUC0-∞” value [1] was 3.04 (2.66, 3.46), the “Geometric LS mean ratio (90% CI), AUClast” value [1] was 2.99 (2.62, 3.41) and the “Geometric LS mean ratio (90% CI), Cmax” value [1] was 1.62 (1.47, 1.79). For the same molecule, the IC50 [2] was 85.5 ± 17.5 nM and the “Inhibition of CYP2C8 in vivo” value [3] was “weak inhibitor”.
